# Source: ChEMBL document CHEMBL4130349, “Discovery and structure-activity relationship studies of 2-benzylidene-2,3-dihydro-1H-inden-1-one and benzofuran-3(2H)-one derivatives as a novel class of potential therapeutics for inflammatory bowel disease” (Eur J Med Chem, 2017)
# System: HT-29
# Test: Inhibition of TNF-alpha-induced adhesion of BCECF-labeled human U937 cells to human HT-29 cells at 10 uM preincubated for 1 hr followed by TNF-alpha challenge measured after 3 hrs by fluorescence microscopic method relative to control
# Type: functional
row,SMILES,inhibition at 10 µM [%]
1,COc1ccc(/C=C2\Cc3c(O)cccc3C2=O)cc1O,0.1
2,O=C1/C(=C/c2cccc(O)c2)Cc2cccc(O)c21,60.5
3,COc1ccc(/C=C2\Cc3ccc(O)cc3C2=O)cc1O,12
4,O=C1/C(=C/c2ccc(O)cc2)Cc2c(O)cccc21,-1.7
5,O=C1/C(=C/c2cccc(O)c2)Cc2cc(O)ccc21,50.2
6,O=C1/C(=C/c2ccccc2O)Oc2cc(O)ccc21,53.5
7,O=C1/C(=C/c2cccc(OC(F)(F)F)c2)Cc2ccccc21,9.9
8,O=C1/C(=C/c2cccc(O)c2)Cc2ccc(O)cc21,62.7
9,O=C1/C(=C/c2ccccc2Cl)Oc2ccccc21,50.7
10,O=C1/C(=C/c2ccc(Cl)cc2)Cc2ccc(O)cc21,67.9
11,O=C1/C(=C/c2ccc(-c3ccccc3)cc2)Cc2ccccc21,62.6
12,O=C1/C(=C/c2cccc([N+](=O)[O-])c2)Cc2ccccc21,46.5
13,O=C1/C(=C/c2cccc(O)c2)Cc2c(O)cccc21,6.1
14,O=C1/C(=C/c2ccccn2)Cc2ccccc21,21.9
15,O=C1/C(=C/c2ccccc2Cl)Cc2ccccc21,-4.3
16,O=C1/C(=C/c2cccc(C(F)(F)F)c2)Cc2ccccc21,54.9
17,O=C1/C(=C/c2ccc(Cl)cc2)Cc2c(O)cccc21,10.6
18,O=C1/C(=C/c2ccccc2O)Cc2cc(O)ccc21,32.1
19,O=C1/C(=C/c2ccccc2C(F)(F)F)Cc2ccccc21,42.8
20,O=C1/C(=C/c2ccc(O)cc2)Cc2cc(O)ccc21,45.4
21,O=C1/C(=C/c2ccccc2Cl)Oc2cc(O)ccc21,45.5
22,O=C1/C(=C/c2ccc(O)cc2)Oc2ccccc21,63.6
23,O=C1/C(=C/c2ccc(O)cc2)Cc2cccc(O)c21,69.8
24,O=C1/C(=C/c2ccc(F)cc2)Cc2ccccc21,7.1
25,O=C1/C(=C/c2cccc(Cl)c2)Oc2cc(O)ccc21,45.9
26,O=C1/C(=C/c2ccccc2O)Cc2cccc(O)c21,67.9
27,O=C1/C(=C/c2cccc(F)c2)Cc2ccccc21,22.1
28,O=C1/C(=C/c2ccc(Cl)cc2)Cc2ccccc21,-6.1
29,O=C1/C(=C/c2ccccc2F)Cc2ccccc21,27.8
30,O=C1/C(=C/c2ccc(OC(F)(F)F)cc2)Cc2ccccc21,34.5
